Columns and labels:
canine = assay: Canine chronic toxicology study; assay type: in vivo, dog; conditions: very highest 2,000 mg/kg dose level
male beagle dogs = assay: Clinical signs and body weight in the single dose dog study (Example 5); assay type: in vivo, beagle dog (Canis familiaris); conditions: study period
Description: Before dosing initiation, all animals were weighed and assigned to treatment groups. At the start of treatment, animals were 7-16 months of age and ranged in weight as 6.4 to 9.4 kg. Animals were housed individually in stainless steel cages equipped with a mesh-type floor and an automatic watering valve. A standard certified pelleted commercial dog food (approximately 400 g of Certified Canine Diet 5C07, PMI Nutrition International, Inc.) was provided to each animal once daily, except during designated procedures. Maximum allowable concentrations of contaminants in the diet (e.g., heavy metals, aflatoxin, organophosphates, chlorinated hydrocarbons, PCBs) were controlled and routinely analyzed by the manufacturers. It was considered that there were no known contaminants in the food that could have interfered with the objectives of the study. Municipal tap water, which was softened, purified by reverse osmosis and exposed to ultraviolet light, was freely available except during designated procedures. It was considered that there were no known contaminants in the water that could have interfered with the objectives of the study. Each Animal was provided with a floor toy, except during designated activities.
Individual body weights were measured once during the predose period and prior to each dose on dosing days.

## CC(=O)N[C@H]1[C@H]([C@H](O)[C@H](O)CO)OC(O)(C(=O)O)C[C@@H]1O (stereo partly drawn) [sialic acid, 5-N-acetylneuraminic acid]
canine
  finding in canine chronic toxicology study: loosening of stools
Male beagle dogs; oral or intravenous administration
  treatment-related clinical signs: no treatment-related clinical signs
Male beagle dogs
  body weight or body weight gains: no treatment related changes in body weight or body weight gains
